Results published in patent US3947411A, “Novel 1-aryl-2-arylalkyl-3-or-4-[4'-(substituted-alkyl)piperazino-1']butanols- 2-or-butenes-1, and methods of manufacture thereof” (Warner-Lambert Company, priority 1972, dated 1976).
≈ marks a conversion by molar mass, not a printed value.

What was measured:
[1] = Solubility in water; assay type: physicochemical; conditions: hydrochlorides or oxalates, read-out: solubilities (in water)
Method: The following list contains examples of those compounds which are made according to the methods disclosed. (The individual compounds are identified by elementary analyses and infrared spectra, by ultra-violet or nuclear resonance spectra, if necessary.) Individual melting points and solubilities (in water) are also given as is the method by which each compound is prepared.
The melting points and solubilities are given for the Hydrochlorides I - XVI; XVIII - XXVII; XXIX - XXXV; XXXVII - XLII; XLIV - LXII; LXIV - LXVII, and the Oxalates XVII; […]; XXXVI; LXIII.

[2] = test system: Mycobacterium tuberculosis II 37 RV (typus humanus); experiment: Efficacy against Mycobacteria, Tb-broth dilution series (Table I); assay type: cell-based; conditions: 504 h, Dubos Tb-broth + 10% bovine serum, 21 days, read-out: Minimum Inhibitory Concentration
[3] = test system: C. albicans; experiment: Minimum inhibitory concentration for fungi in presence of serum, C. albicans (Table VI); assay type: cell-based; conditions: Candida albicans; Sabouraud nutrient broth + 10% bovine serum, 28°C, 48 hours
[4] = test system: Candida albicans; experiment: Agar well inhibition zone test against fungi, Candida albicans (Table II); conditions: quantity per well giving inhibition zone (500, 50, 5 μg tested); Sabouraud agar, 28°, 48 hours
Method: (§1) The efficacy of the compounds against fungi was tested as follows:
(§2) The test organisms, in this case the blastomycete Candida albicans and the mold Aspergillus niger, were inoculated onto Sabouraud agar plates by pouring a photometrically adjusted standard suspension of organisms on the plate. After inoculation, wells with a diameter of 5.0 mm were punched in the agar, and filled with 50 ul of the compound solution mentioned before. The quantity of compound applied thus amounted to 500 μg, 50 μg and 5 μg. After incubation at 28° for 48 hours, the quantity of compound was determined at which an inhibition of the organism's growth, in form of an inhibition zone around the corresponding well, was present.

[5] = test system: Aspergillus niger; experiment: Agar well inhibition zone test against fungi, Aspergillus niger (Table II); conditions: quantity per well giving inhibition zone (500, 50, 5 μg tested); Sabouraud agar, 28°, 48 hours
Method: as §1, §2

[6] = test system: Escherichia coli; experiment: Agar well inhibition zone test against bacteria, Escherichia coli (Table III); conditions: quantity per well giving inhibition zone (500, 50, 5 μg tested); nutrient agar, 37°, 24 hours
[7] = test system: A. niger; experiment: Minimum inhibitory concentration for fungi, tube dilution, A. niger (Table IV); conditions: Aspergillus niger, 48 h, read-out: Minimum Inhibitory Concentration, A. niger
Method: (§3) A tube dilution series of the respective compound in Sabouraud nutrient broth, whose individual tubes contained concentrations of 1024 μg, 512 μg, 256 μg, 128 μg, 64 μg, 32 μg, 16 μg, 8 μg, 4 μg, 2 μg, 1.1 μg and 0.5 μg/ml, was prepared and inoculated with a photometrically standardized suspension of the test organisms or the spores thereof.

[8] = test system: C. albicans; experiment: Minimum inhibitory concentration for fungi, tube dilution, C. albicans (Table IV); conditions: Candida albicans, 48 h, read-out: Minimum Inhibitory Concentration, C. albicans
Method: as §3

[9] = test system: Staphylococcus aureus; experiment: Agar well inhibition zone test against bacteria, Staphylococcus aureus (Table III); conditions: quantity per well giving inhibition zone (500, 50, 5 μg tested); nutrient agar, 37°, 24 hours
Method: The efficacy of the compounds against bacteria was tested as follows:
The test organisms, in this case Staphylococcus aureus and Escherichia coli, were inoculated on nutrient agar as described in Example 12, wells were punched, and the solutions of the compounds were transferred to fill the wells. The quantity of compound in the wells amounted again to 500 μg, 50 μg and 5 μg.
After incubation a 37° for 24 hours the quantity of compound was determined at which an inhibition of the organism's growth, in the form of an inhibition zone around the corresponding well, occurred.

[10] = test system: E. coli; experiment: Minimum inhibitory concentration for bacteria, tube dilution, E. coli (Table V); assay type: cell-based; conditions: Escherichia coli, 48 h, read-out: Minimum Inhibitory Concentration, E. coli
[11] = test system: A. niger; experiment: Minimum inhibitory concentration for fungi in presence of serum, A. niger (Table VI); assay type: cell-based; conditions: Aspergillus niger; Sabouraud nutrient broth + 10% bovine serum, 28°C, 48 hours
[12] = test system: Staph. aureus; experiment: Minimum inhibitory concentration for bacteria, tube dilution, Staph. aureus (Table V); conditions: Staphylococcus aureus, 48 h, read-out: Minimum Inhibitory Concentration, Staph. aureus
Method: A tube dilution series of the respective compound in nutrient broth whose individual tubes contained concentrations of 1024 μg, 512 μg, 256 μg, 128 μg, 64 μg, 32 μg, 1 μg, 8 μg, 4 μg, 2 μg, 1.1 μg and 0.5 μg/ml was prepared and inoculated with a photometrically standardized suspension of the test organisms.

Row | SMILES | solubility [1] [mg/mL] | MIC [2] [µg/mL] | MIC [3] [µg/mL] | Inhibition Area at μg, Cand. albicans [4] [µg] | Inhibition Area at μg, Asp. niger [5] [µg] | Inhibition Area at μg, E. coli [6] [µg] | MIC [7] [µg/mL] | MIC [8] [µg/mL] | Inhibition Area at μg, Staph. aureus [9] [µg] | MIC [10] [µg/mL] | MIC [11] [µg/mL] | MIC [12] [µg/mL]
1 | CC1CCN(CCN2CCN(C(C)C(O)(Cc3ccccc3)Cc3ccccc3)CC2)CC1 (stereo not drawn) [IX, 1-phenyl-2-benzyl-3-{4'-[β-(4"-methyl-piperidino)-ethyl]-piperazino-1'}-butanol-2] | 50 (≈ 111000 µM) | 100 | 32 | 50 | 50 | 500 | 128 (≈ 285 µM) | 16 (≈ 35.6 µM) | 500 | – | – | –
2 | CC(N1CCN(C)CC1)C(O)(Cc1ccc(Cl)cc1)Cc1ccc(Cl)cc1 (stereo not shown) [XLVIII, 1-p-chlorophenyl-2-p-chlorobenzyl-3-(4'-methyl-piperazino-1')-butanol-2] | 50 (≈ 123000 µM) | – | > 1020 | 50 | 50 | 50 | 4 (≈ 9.82 µM) | 8 (≈ 19.6 µM) | 50 | > 1020 | 256 | 128 (≈ 314 µM)
3 | CC1CCCCN1CCN1CCN(C(C)C(O)(Cc2ccccc2)Cc2ccccc2)CC1 (stereo not drawn) [VII, 1-phenyl-2-benzyl-3-{4'-[β-(2"-methyl-piperidino)-ethyl]-piperazino-1'}-butanol-2] | 50 (≈ 111000 µM) | 10 | 32 | 50 | 500 | > 500 | – | 32 (≈ 71.2 µM) | 500 | – | – | –
4 | CC(C(=Cc1ccccc1)Cc1ccccc1)N1CCN(CCN2CCCCC2)CC1 (stereo not drawn) [XXX, 1-phenyl-2-benzyl-3-[4'-(β-piperidino-ethyl)-piperazino-1']-butene-1] | 10 (≈ 23900 µM) | 50 | 256 | 50 | 5 | 500 | 32 (≈ 76.6 µM) | 16 (≈ 38.3 µM) | 50 | – | 32 | 128 (≈ 306 µM)
5 | CC(N1CCNCC1)C(O)(Cc1ccccc1)Cc1ccccc1 (stereo not shown) [L, 1-phenyl-2-benzyl-3-piperazino-butanol-2] | 10 (≈ 30800 µM) | 500 | 512 | 50 | 50 | 500 | – | – | 500 | – | – | –
6 | Cc1cccc(CC(O)(Cc2cccc(C)c2)C(C)N2CCN(C)CC2)c1 (stereo not shown) [IL, 1-m-tolyl-2-(m-methyl-benzyl)-3-(4'-methyl-piperazino-1')-butanol-2] | 50 (≈ 136000 µM) | 100 | 256 | 50 | 50 | 500 | 32 (≈ 87.3 µM) | 32 (≈ 87.3 µM) | 50 | – | 128 | 128 (≈ 349 µM)
7 | CCC(N1CCN(C)CC1)C(O)(Cc1ccccc1)Cc1ccccc1 (stereo not shown) [LVIII, 1-phenyl-2-benzyl-3-(4'-methyl-piperazino-1')-pentanol-2] | < 10 | 100 | – | 50 | 50 | 500 | 128 (≈ 363 µM) | 256 (≈ 726 µM) | 50 | – | – | 256 (≈ 726 µM)
8 | CC(N1CCN(CCN2CCCC2)CC1)C(O)(Cc1ccccc1)Cc1ccccc1 (stereo not drawn) [III, 1-phenyl-2-benzyl-3-[4'-(β-pyrrolidino-ethyl)-piperazino-1']-butanol-2] | 50 (≈ 119000 µM) | 50 | 64 | 50 | 50 | 500 | 64 (≈ 152 µM) | 32 (≈ 75.9 µM) | 50 | – | 128 | 512 (≈ 1210 µM)
9 | CC(N1CCN(Cc2ccccn2)CC1)C(O)(Cc1ccccc1)Cc1ccccc1 (stereo not shown) [XXII, 1-phenyl-2-benzyl-3-[4'-(2"-pyridylmethyl)-piperazino-1']-butanol-2] | 50 (≈ 120000 µM) | 500 | 512 | 500 | 500 | > 500 | – | – | 50 | – | – | > 1020
10 | CCN(CC)CCN1CCN(C(C)C(=Cc2ccccc2)Cc2ccccc2)CC1 (stereo not drawn) [XXVII, 1-phenyl-2-benzyl-3-[4'-(β-diethylamino-ethyl)-piperazino-1']-butene-1] | 100 (≈ 247000 µM) | 10 | – | 5 | 5 | 500 | 128 (≈ 316 µM) | 256 (≈ 631 µM) | 50 | – | – | 256 (≈ 631 µM)
11 | CC(C(=Cc1ccccc1)Cc1ccccc1)N1CCN(CCN2CCCC2)CC1 (stereo not drawn) [XXIX, 1-phenyl-2-benzyl-3-[4'-(β-pyrrolidino-ethyl)-piperazino-1']-butene-1] | 100 (≈ 248000 µM) | 10 | 128 | 50 | 50 | 500 | 16 (≈ 39.6 µM) | 8 (≈ 19.8 µM) | 50 | – | 32 | 128 (≈ 317 µM)
12 | CC(N1CCN(CCN(C)Cc2ccccc2)CC1)C(O)(Cc1ccccc1)Cc1ccccc1 (stereo not drawn) [XV, 1-phenyl-2-benzyl-3-[4'-(β-N-methyl-N-benzylamino-ethyl)-piperazino-1']-butanol-2] | 100 (≈ 212000 µM) | – | 512 | 50 | 50 | 50 | 128 (≈ 271 µM) | 16 (≈ 33.9 µM) | 50 | > 1020 | – | > 1020
13 | CC1CCCN(CCN2CCN(C(C)C(O)(Cc3ccccc3)Cc3ccccc3)CC2)C1 (stereo not drawn) [VIII, 1-phenyl-2-benzyl-3-{4'-[β-(3"-methyl-piperidino)-ethyl]-piperazino-1'}butanol-2] | 50 (≈ 111000 µM) | 100 | 16 | 50 | 500 | > 500 | – | 16 (≈ 35.6 µM) | 50 | – | – | 512 (≈ 1140 µM)
14 | CC(N1CCN(CCN2CCCCC2)CC1)C(O)(Cc1ccccc1)Cc1ccccc1 (stereo not drawn) [IV, 1-phenyl-2-benzyl-3-[4'-(β-piperidino-ethyl)-piperazino-1']-butanol-2] | 50 (≈ 115000 µM) | 100 | 32 | 50 | 500 | > 500 | – | 32 (≈ 73.5 µM) | 500 | – | – | –
15 | CC(N1CCN(CCN2CCN(Cc3ccccc3)CC2)CC1)C(O)(Cc1ccccc1)Cc1ccccc1 (stereo not drawn) [XII, 1-phenyl-2-benzyl-3-{4'-[β-(4"-benzyl-piperazino-1")-ethyl]-piperazino-1'}-butanol-2] | 100 (≈ 190000 µM) | 100 | 256 | 5 | 50 | 500 | 16 (≈ 30.4 µM) | 64 (≈ 121 µM) | 50 | – | > 1020 | 64 (≈ 121 µM)
16 | CC(N1CCN(CCN2CCOCC2)CC1)C(O)(Cc1ccccc1)Cc1ccccc1 (stereo not drawn) [V, 1-phenyl-2-benzyl-3-[4'-(β-morpholino-ethyl)-piperazino-1']-butanol-2] | 50 (≈ 114000 µM) | 100 | – | 50 | 50 | 500 | 64 (≈ 146 µM) | > 1020 | 50 | – | 256 | 512 (≈ 1170 µM)
17 | CC(N1CCN(CCCN2CCCCC2)CC1)C(O)(Cc1ccccc1)Cc1ccccc1 (stereo not shown) [XIX, 1-phenyl-2-benzyl-3-[4'-(γ-piperidinopropyl)-piperazino-1']-butanol-2] | 100 (≈ 222000 µM) | 100 | 16 | 5 | 5 | 500 | 32 (≈ 71.2 µM) | 16 (≈ 35.6 µM) | 500 | – | 32 | –
